Test results taken from patent US8399206B2, “Methods for diagnosis, prognosis and methods of treatment” (Nodality, Inc., priority 2008, dated 2013).
Where a SMILES comes first, the peptide text is derived from it. The star is where a group is joined. Cbz = O=C(OCc1ccccc1)*; CH2F = FC*

Columns and labels:
Assay type in all cases: cell-based, human
AML blasts [1] = assay: Functional apoptosis and DNA damage response assay, AML study No. 1 (c-PARP, cleaved caspases, p-Chk2)
Protocol: Multi-parameter flow cytometric analysis was performed on peripheral blasts taken at diagnosis from 9 AML patients who achieved a complete response (CR) and 24 patients who were non-responders (NR) to one cycle of standard 7+3 induction therapy (100-200 mg/m2 cytarabine and 60 mg/m2 daunorubicin). The signaling nodes were organized into 4 biological categories: 1) Protein expression of receptors and drug transporters 2) Response to cytokines and growth factors, 3) Phosphatase activity, and 4) Apoptotic signaling pathways.
A viable cell will be Aqua negative and PARP negative and a measure of cell death is PARP and/or Aqua positivity. “Apoptosis”=% of PARP^−Aqua^−unstim−% of PARP^−Aqua^−Drug.
Functional assays were performed as previously described. Cells were incubated with modulators (Table 18), at 37° C. for 3-15 minutes, fixed with 1.6% paraformaldehyde (final concentration) for 10 minutes at 37° C., pelleted and permeabilized with 100% ice-cold methanol and stored at −80° C.
The median fluorescence intensity (MFI) was computed for each node from the fluorescence intensity levels for the cells in the myeloid population. The MFI values were then used to compute a variety of metrics by comparing them to baseline or background values, including the unmodulated condition, cellular autofluorescence and antibody isotype controls. The following metrics were computed: • 1. Basal MFI (“Basal”)=log2(MFIUnmodulated Stained)−log2(MFIGated Unstained (Autofluoresence)), designed to measure the basal levels of a certain protein under unmodulated conditions. • 2. Fold Change MFI (“Fold”)=log2(MFIModulated Stained)−log2(MFIUnmodulated Stained), a measure of the change in the activation state of a protein under modulated conditions. • 3. Total Phospho MFI (“TotalPhospho”)=log2(MFIModulated Stained)−log2(MFIGated Unstained (Autofluorescence)), a measure of the total levels of a protein under modulated conditions. • 4. Relative Protein Expression (“Rel. Expression”)=log2(MFIstain)−log2(MFIControl), a measure of the levels of surface marker staining relative to control antibody staining. • 5. […] An additional metric was designed to measure the levels of cellular apoptosis in response to cytotoxic drugs: Quadrant (“Quad”)=a measure of the percentage of cells in a flow cytometry quadrant region defined by p-Chk2 and c-PARP i.e. the % of cells that are both p-Chk2- and c-PARP+.

AML blasts [2] = assay: SCNP / phospho-flow modulated signaling assay, AML study No. 1 (PBMC at diagnosis, CR vs NR)
Excerpt: The present illustrative example represents how to analyze cells in one embodiment of the present invention. There are several steps in the process, such as the stimulation step, the staining step and the flow cytometry step. The stimulation step of the phospho-flow procedure can start with vials of frozen cells and end with cells fixed and permeabilized in methanol. Then the cells can be stained with an antibody directed to a particular protein of interest and then analyzed using a flow cytometer.
Frozen cells are thawed in a 37° C. water bath and gently resuspended in the vial and transferred to the 15 mL conical tube. The 15 mL tube is centrifuged at 930 RPM (200×g) for 8 minutes at room temperature. The supernatant is aspirated and the pellet is gently resuspended in 1 mL media A. The cell suspension is filtered through a 70 um cell strainer into a new 15 mL tube. The cell strainer is rinsed with 1 mL media A and another 12 ml of media A into the 15 mL tube. The cells are mixed into an even suspension. A 20 μL aliquot is immediately removed into a 96-well plate containing 180 μL PBS+4% FBS+CD45 Alexa 700+PI to determine cell count and viability post spin. After the determination, the 15 mL tubes are centrifuged at 930 RPM (200×g) for 8 minutes at room temperature. The supernatant is aspirated and the cell pellet is gently resuspended in 4 mL PBS+4 μL Amine Aqua and incubated for 15 min in a 37° C. incubator. 10 mL RPMI+1% FBS is added to the cell suspension and the tube is inverted to mix the cells. The 15 mL tubes are centrifuged at 930 RPM (200×g) for 8 minutes at room temperature. The cells are resuspended in Media A at the desired cell concentration (1.25×10^6/mL). For samples with low numbers of cells (<18.5×10^6), the cells are resuspended in up to 15 mL media. For samples with high numbers of cells (>18.5×10^6), the volume is raised to 10 mL with media A and the desired volume is transferred to a new 15 mL tube, and the cell concentration is adjusted to 1.25×10^6 cells/ml. 1.6 mL of the above cell suspension (concentration at 1.25×10^6 cells/ml) is transferred into wells of a multi-well plate. From this plate, 80 ul is dispensed into each well of a subsequent plate. The plates are covered with a lid (Nunc) and placed in a 37° C. incubator for 2 hours to rest.
A concentration for each stimulant that is five folds more (5×) than the final concentration is prepared using Media A as diluent. 5× stimuli are arrayed into wells of a standard 96 well v-bottom plate that correspond to the wells on the plate with cells to be stimulated.
Adding the stimulant: The cell plate(s) are taken out of the incubator and placed in a 37° C. water bath next to the pipette apparatus. The cell plate is taken from the water bath and gently swirled to resuspend any settled cells. With pipettor, the stimulant is dispensed into the cell plate and vortexed at “7” for 5 seconds. The deep well plate is put back into the water bath.
Adding Fixative: 200 μl of the fixative solution (final concentration at 1.6%) is dispensed into wells and then mixed on the titer plate shaker on high for 5 seconds. The plate is covered with foil sealer and incubated in a 37° C. water bath for 10 minutes. The plate is spun for 6 minutes at 2000 rpm at room temperature. The cells are aspirated using a 96 well plate aspirator (VP Scientific). The plate is vortexed to resuspend cell pellets in the residual volume. The pellet is ensured to be dispersed before the Methanol step (see cell permeabilization) or clumping will occur.
Cell Permeabilization: Permeability agent, for example methanol, is added slowly and while the plate is vortexing. To do this, the cell plate is placed on titer plate shaker and made sure it is secure. The plate is set to shake using the highest setting. A pipetter is used to add 0.6 mls of 100% methanol to the plate wells. The plate(s) are put on ice until this step has been completed for all plates.

AML myeloblasts (BMMC) = assay: SCNP of paired diagnosis and relapse AML BMMC and independent diagnostic set (Example 5); settings: paired diagnosis samples of Patients 1 and 2
Excerpt: All AML bone marrow mononuclear cells (BMMC) were derived from the bone marrow (BM) of AML patients treated at MD Anderson Cancer Center (MDACC) between September 1999 and September 2006. Clinical data were de-identified in compliance with Health Insurance Portability and Accountability Act regulations. Patient/sample inclusion criteria required a diagnosis of French-American-British (FAB) classification of M0 through M7 AML (excluding M3) AML, collection prior to therapy initiation and at least 50% viability upon sample thaw. For the identification of chemoresistant signaling profiles, two longitudinally paired BMMC samples at diagnosis (collection prior to the initiation of induction chemotherapy) and first relapse, were examined. An independent test set comprised of 47 BMMC samples collected at diagnosis from AML patients with a disease response of CR after high dose cytarabine based chemotherapy was used to assess the ability of the identified signaling profiles to predict disease relapse. Healthy, unstimulated BMMC (n=2) were purchased from a commercial source (All Cells) to serve as a control. All samples underwent fractionation over Ficoll-Hypaque prior to cryopreservation with 90% fetal bovine serum and 10% dimethyl sulfoxide and storage in liquid nitrogen.
The SCNP assay measured response to growth factors and cytokines involved in hematopoietic progenitor or myeloid biology (SCF, FLT3L, G-CSF, IL-27), drug transporter (ABCG2, MRP-1) and chemokine receptors (CXCR4) associated with adverse disease prognosis in AML, and the c-Kit growth factor receptor for SCF. The SCF and FLT3L-mediated PI3K/Akt and MAPK pathway is important for maintaining the hematopoietic stem cell pool; G-CSF-mediated Jak/STAT pathway activation is important for neutrophilic differentiation of hematopoietic progenitor cells; interleukin (IL)-27 mediated Jak/STAT pathway activation is important in regulating proliferation and differentiation of hematopoietic stem cells; CXCR4 expression is associated with disease relapse and decreased survival; and drug transporter expression levels (i.e. ABCG2 and MRP-1) are known to be associated with adverse prognosis in AML. All together, approximately 20 signaling nodes were evaluated in each sample.
SCNP assays were performed as described previously. Cryopreserved samples were thawed at 37° C. and washed once in warm PBS containing 10% FBS (HyClone, Waltham, Mass., USA) and 2 mM EDTA. […] The cells were re-suspended in RPMI containing 1% FBS, aliquoted to 100,000 cells/condition and rested for 1-2 hours at 37° C. […]

[3] = Study No. 1 sensitivity analysis, CR samples
[4] = Study No. 1 sensitivity analysis, NR samples incl. CRp

CN[C@@H]1C[C@H]2O[C@@](C)([C@@H]1OC)n1c3ccccc3c3c4c(c5c6ccccc6n2c5c31)C(=O)NC4 [Staurosporine]
cell death as determined by cleaved PARP and cleaved Caspase 8 (AML blasts [1]): failed to undergo cell death | cleaved PARP and caspase 8 (AML blasts [1]): significant populations of cells with cleaved PARP and caspase 8 | in vitro apoptotic response in the context of FLT3 mutations (AML blasts [1]): greatest apoptotic responses were those that expressed FLT3 ITD | phosphorylated Chk2 (AML blasts [1]): increase in phosphorylated Chk2

COC(=O)CC(NC(=O)C(C)NC(=O)C(NC(=O)OCc1ccccc1)C(C)C)C(=O)CF (stereo not drawn) [Z-VAD, benzyloxycarbonyl-Val-Ala-Asp (OMe) fluoromethylketone] (Cbz-Val-Ala-Asp(OMe)-CH2F; configuration not given here)
cleavage of caspase 3 and PARP on co-incubation with Z-VAD (AML blasts [1]; samples 0341, 0521): inhibited cleavage of caspase 3 and PARP to near completion | PARP cleavage on co-incubation with Z-VAD (AML blasts [1]; samples 8303, 8402): only partially inhibited

SCF: stem cell factor
Mean Value of CRs, p-Akt Fold (AML blasts [2]; [3]): 0.09 | Mean Value of CRs, p-CREB Total Phospho (AML blasts [2]; [3]): 1.32 | Mean Value of CRs, p-Erk Fold (AML blasts [2]; [3]): −0.06 | Mean Value of CRs, p-Plcγ2 Total Phospho (AML blasts [2]; [3]): 1.80 | Mean Value of NRs, p-Akt Fold (AML blasts [2]; [4]): 0.56 | Mean Value of NRs, p-CREB Total Phospho (AML blasts [2]; [4]): 1.92 | Mean Value of NRs, p-Erk Fold (AML blasts [2]; [4]): 0.11 | Mean Value of NRs, p-Plcγ2 Total Phospho (AML blasts [2]; [4]): 2.79 | responsive cells in diagnostic AML bone marrow samples (AML myeloblasts (BMMC)): ~1%

B1: G-CSF: granulocyte colony-stimulating factor (protein, UniProt P09919 31-207, looked up)
Granulocyte …: TPLGPASSLPQSFLLKCLEQVRKIQGDGAALQEKLVSECATYKLCHPEELVLLGHSLGIPWAPLSSCPSQALQLAGCLSQLHSGLFLYQGLLQALEGISPELGPTLDTLQLDVADFATTIWQQMEELGMAPALQPTQGAMPAFASAFQRRAGGVLVASHLQSFLEVSYRVLRHLAQP
increase in p-Akt and p-S6 levels (AML blasts [2]; Staurosporine Resistant category vs other apoptosis categories): greatest increase in p-Akt and p-S6 levels | Mean Value of CRs, p-Stat3 Fold (AML blasts [2]; [3]): 0.60 | Mean Value of CRs, p-Stat3 Total Phospho (AML blasts [2]; [3]): 1.40 | Mean Value of CRs, p-Stat5 Fold (AML blasts [2]; [3]): 0.33 | Mean Value of NRs, p-Stat3 Total Phospho (AML blasts [2]; [4]): 2.74 | Mean Value of NRs, p-Stat5 Fold (AML blasts [2]; [4]): 1.15 | Mean Value of NRs, p-Stat3 Fold (AML blasts [2]; Study No. 1 sensitivity analysis, NR samples incl. CRp, negative = down regulation): 1.52 | Jak/Stat response (G-CSF: p-Stat3, p-Stat5; GM-CSF: p-Stat5) (AML blasts [2]; all samples of the Staurosporine Resistant apoptosis category): Robust Jak/Stat responses | responsive cells in diagnostic AML bone marrow samples (AML myeloblasts (BMMC)): ~1%
